Experimental data published in patent EP3072514A1, “Novel oral anticoagulants (NOACs) for preventing development and aggravation of atrial fibrillation” (Université Pierre et Marie Curie - Paris 6 (UPMC), priority 2015, dated 2016).

How the values were obtained:
[1] = Plasma concentration by LC-MS/MS in I/R rats; parameters: species or system Male OFA Sprague-dawley rats; details: rat, in vivo; 25 mg/kg/day (12.5 mg/kg BID) by force-feeding, 4 weeks; blood 90 minutes after last oral administration; ± SD
From the text: • Figure 1 is a combination of two graphs showing left atrium (LA) area after one month of treatment with DTI Dabigatran (A) or S35792 (B). Vehicle (V) is 60% H2O/40% PEG 300 for dabigatran and saline for S35972. Treatment of rats started just after thoracotomy without (Sham) or with occlusion of left coronary artery followed by reperfusion (I/R). Results are presented as mean +/- S.E.M, *P<0.05, **P<0.01 and *** P<0.001 vs Sham; ^##P<0.01 and ^###P<0.001 vs untreated I/R. • Figure 2 is a combination of graphs showing left ventricular end-diastolic (LVED) diameter and fractional shortening (FS) after one month of treatment with Dabigatran (A) or S35792 (B). Vehicle (V) is 60% H2O/40% PEG 300 for dabigatran and saline for S35972. Treatment of rats started just after thoracotomy without (Sham) or with occlusion of left coronary artery followed by reperfusion (I/R). Results are presented as mean +/- S.E.M. * P<0.05; ** P<0.001, *** P<0.001 vs Sham; #P<0.05 vs untreated I/R. • Figure 3 is a combination of two graphs showing thrombin time (TT), which reflects anticoagulant activity, and plasma concentrations of Dabigatran (A) and S35792 (B) in rats after throracotomy with occlusion of left coronary artery followed by reperfusion (I/R). Vehicle (V) is 60% H2O/40% PEG 300 for dabigatran and saline for S35972. […] DTI plasma levels are quantified using LC-MS/MS. TT are expressed as mean +/- S.E.M with reference to the mean value of sham animals that underwent thoracotomy only. *** P<0.001 vs untreated I/R. • Figure 4 is a combination of three graphs showing left atrium (LA) area (A) and diameter (B) and left ventricle end-diastolic (LVED) diameter (C) after two months of treatment with S35972. […] LA area was measured by bidimensional echocardiography. LA and LVED diameters were measured in time-motion mode. […] AF duration is measured as the time between the end of the electric stimulation and the return to sinusoidal rhythm. […] Expression of mRNA was measured with real-time qPCR. […] Expression of mRNA was measured with real-time qPCR. […]

blood coagulation = experiment: Thrombin time (TT) on blood collected by cardiac puncture at sacrifice of I/R rats; format: in vivo, Male OFA Sprague-dawley rats; details: 25 mg/kg/day (12.5 mg/kg BID) by force-feeding; with reference to the mean value of sham animals
From the text: • Figure 1 is a combination of two graphs showing left atrium (LA) area after one month of treatment with DTI Dabigatran (A) or S35792 (B). Vehicle (V) is 60% H2O/40% PEG 300 for dabigatran and saline for S35972. Treatment of rats started just after thoracotomy without (Sham) or with occlusion of left coronary artery followed by reperfusion (I/R). […] Vehicle (V) is 60% H2O/40% PEG 300 for dabigatran and saline for S35972. Treatment of rats started just after thoracotomy without (Sham) or with occlusion of left coronary artery followed by reperfusion (I/R). Results are presented as mean +/- S.E.M. * P<0.05; ** P<0.001, *** P<0.001 vs Sham; #P<0.05 vs untreated I/R. • Figure 3 is a combination of two graphs showing thrombin time (TT), which reflects anticoagulant activity, and plasma concentrations of Dabigatran (A) and S35792 (B) in rats after throracotomy with occlusion of left coronary artery followed by reperfusion (I/R). Vehicle (V) is 60% H2O/40% PEG 300 for dabigatran and saline for S35972. […] DTI plasma levels are quantified using LC-MS/MS. TT are expressed as mean +/- S.E.M with reference to the mean value of sham animals that underwent thoracotomy only. *** P<0.001 vs untreated I/R. • Figure 4 is a combination of three graphs showing left atrium (LA) area (A) and diameter (B) and left ventricle end-diastolic (LVED) diameter (C) after two months of treatment with S35972. […] LA area was measured by bidimensional echocardiography. LA and LVED diameters were measured in time-motion mode. […] AF duration is measured as the time between the end of the electric stimulation and the return to sinusoidal rhythm. […] Expression of mRNA was measured with real-time qPCR. […] Expression of mRNA was measured with real-time qPCR. […] Expression of mRNA was measured with real-time qPCR. […] LA area was measured by bidimensional echocardiography. LVED and LA diameters were measured in time-motion mode. […] AF duration is measured as the time between the end of the electric stimulation and return to sinusoidal rhythm. […]

Q: Which concentration at 1.5 h [1] does the source give for `[H]/N=C(/N)c1ccc(NCc2nc3cc(C(=O)N(CCC(=O)O)c4ccccn4)ccc3n2C)cc1` [dabigatran, reference compound] here?
A: Its concentration at 1.5 h is 49.2 ± 19.3 ng/mL.

Q: What about the “thrombin time increases by a factor” value (blood coagulation) of the same compound?
A: The value was 8.
